# Test results from PubChem BioAssay AID1996.
# Settings: buffer; pH 7.4; 200.0 µM
row,SMILES,solubility kinetic
1,CN(C)c1ccc(C(=O)OCC(=O)N2CCCCCC2)cc1,33.9 µg/mL
2,C=CCSc1nc(C)c(CCC(C)C)c(=O)[nH]1,9.2 µg/mL
3,Cc1noc(C(=O)Nc2ccc(C#N)cc2)c1Cl,1.6 µg/mL
4,O=C(O)c1cccc2c1C(=O)N(C1CCCC1)C2,34 µg/mL
5,CC1CCCCC1NC(=O)Cn1cc([N+](=O)[O-])ccc1=O (centres undefined),29.1 µg/mL
6,COC(=O)c1ccccc1NC(=O)c1ccc2c(c1)CC(C)O2 (centres undefined),2.4 µg/mL
7,O=C(O)CCCC(=O)NCc1c(Cl)cccc1Sc1ccc(Cl)cc1,> 59.7 µg/mL
8,O=c1c2c3c(sc2[nH]c(=S)n1Cc1ccco1)CCC3,34.6 µg/mL
9,CC(=O)c1cc2c(cc1NC(=O)Cc1ccsc1)OCO2,10.5 µg/mL
10,O=S(=O)(c1ccc(NCc2ccc(F)cc2)nc1)N1CCCC1,3 µg/mL
11,C=CCNC(=O)c1ccc([N+](=O)[O-])c(Cl)c1,> 36.1 µg/mL
12,FC(c1nc2ccccc2[nH]1)C(F)(F)F (centres undefined),> 32.7 µg/mL
13,O=C(COc1ccc(Br)cc1)N1CCc2ccccc21,< 0.7 µg/mL
14,Cl.NCc1ccccc1CS(=O)(=O)N1CCOCC1,> 46 µg/mL
15,Fc1ccc2nc(N3CCCC3)sc2c1,15.6 µg/mL
16,O=S(=O)(Cc1noc(-c2ccccc2Cl)n1)c1ccccn1,37.2 µg/mL
17,COc1cc(N)c(Cl)cc1C(=O)OCC(=O)NC1CCCC1,> 49 µg/mL
18,NS(=O)(=O)c1ccc(NC(=O)CNC(=O)c2ccc3c(c2)OCO3)cc1,10 µg/mL
19,COc1ccccc1NC(=O)NCc1ccc(C)n1C,19.9 µg/mL
20,COc1cc2c(cc1OC)C(c1ccc(Cl)cc1)=NCC2,41.5 µg/mL
21,Cc1cc(NC(=O)COC(=O)C2CC2)ccc1Br,> 46.8 µg/mL
22,O=C1CS/C(=C/C(=O)c2cccc(Cl)c2)N1,10.5 µg/mL
23,Cc1nc(N2CCN(c3ccccc3F)CC2)[nH]c(=O)c1C,14.6 µg/mL
24,Cc1c(Cl)cccc1NC(=S)NCC(O)c1ccccc1 (centres undefined),46.7 µg/mL

row,SMILES,solubility kinetic
1,CC(=O)c1ccc(Nc2nc(C)cc(C)n2)cc1,5.6 µg/mL
2,Cc1nn(-c2ccc(F)cc2)c(C)c1/C=C/C(=O)N1CCNC(=O)C1,> 51.4 µg/mL
3,CCC(=O)NC1CCN(C(=S)NC)CC1,> 34.4 µg/mL
4,O=C(NCc1ccccc1Cl)c1cnccc1C(F)(F)F,> 47.2 µg/mL
5,Cc1ccc(C(=O)Nc2ccc(N3CCN(C)CC3)cc2)c(Cl)c1,> 51.6 µg/mL
6,Oc1ccc2c(c1)c1c3n2CCNC3CCC1 (centres undefined),31.3 µg/mL
7,CN(C)CCCN(Cc1ccc2c(c1)OCO2)C(=O)NC1CCCCC1,> 54.2 µg/mL
8,Cc1cnc(C(=O)OCC(=O)Nc2cccc3ccccc23)cn1,> 48.2 µg/mL
9,CC(Sc1ncnc2sccc12)C(=O)Nc1ccc(S(N)(=O)=O)cc1 (centres undefined),8.7 µg/mL
10,O=C(CSc1ccccc1)Nc1ccc2c(c1)OCCO2,> 45.2 µg/mL
11,CC(O)c1nc2ccccc2n1CCCc1ccccc1 (centres undefined),> 42.1 µg/mL
12,CCSc1ncc(Cl)c(C(=O)Nc2ccccc2C)n1,0.5 µg/mL
13,COc1ccccc1NC(=O)N1CCN(CCc2ccccc2)CC1,50.7 µg/mL
14,Cc1cccc(OCCCC(=O)N2CCCCCC2)c1C,26.9 µg/mL
15,CCc1nc2cc(Cl)c(Cl)cc2nc1CC,< 0.3 µg/mL
16,O=C(NCCCN1CCCC1=O)c1cc2ccccc2o1,> 42.9 µg/mL
17,O=C(NC(=S)N1CCc2ccccc21)c1ccccc1Cl,46.6 µg/mL
18,Nc1cc(=O)[nH]c(SCC(=O)Nc2ccc(S(=O)(=O)N3CCCC3)cc2)n1,> 61.4 µg/mL
19,COc1ccccc1N1CCN(C(=S)NC(=O)/C=C/c2ccccc2)CC1,1.3 µg/mL
20,O=S(=O)(c1ccc(Br)cc1)N1CCCc2ccccc21,1.6 µg/mL
21,O=C(Nc1ccc(OC(F)(F)F)cc1)c1cnccn1,11.3 µg/mL
22,COc1cccc(-c2cc(C(=O)N3CCOCC3)no2)c1,> 43.2 µg/mL
23,N#C/C=C(/c1ccc(F)cc1)N1CCOCC1,> 34.8 µg/mL
24,COCCCN1CN(Cc2ccco2)CNC1=S,> 40.4 µg/mL

row,SMILES,solubility kinetic
1,O=c1cc(-c2ccccc2)nc(SCCOc2ccccc2Cl)[nH]1,0.4 µg/mL
2,COc1ccc(N2CCc3c(C)nc4c(OC)cc(OC)cc4c32)cc1,> 52.6 µg/mL
3,COc1ccc2oc(=O)c(N3C(=O)c4ccccc4C3=O)cc2c1,1.2 µg/mL
4,Cc1ccc(S(=O)(=O)N2CCCC(C(=O)NCC3CCCO3)C2)cc1 (centres undefined),> 55 µg/mL
5,Cc1ccc(S(=O)(=O)N[C@H](C(=O)NC2CCC(C)CC2)C(C)C)cc1 (some centres undefined),24 µg/mL
6,CC(=O)c1cc(C#N)c(SCc2ccccn2)nc1C,10.2 µg/mL
7,COCCNc1nc2nonc2nc1N(C)Cc1ccc(C)cc1,> 49.3 µg/mL
8,COc1cc(C(=O)NCC(=O)N2CCN(S(=O)(=O)c3ccccc3C(F)(F)F)CC2)cc(OC)c1OC,> 81.8 µg/mL
9,CC(C)C[C@H](NC(=O)NCCC1=CCCCC1)C(=O)O,40.9 µg/mL
10,CC1CCC(NC(=O)CN2C(=O)c3ccccc3S2(=O)=O)CC1 (centres undefined),> 50.5 µg/mL
11,CC1CN(C(=O)COC(=O)c2ccc(Cl)nc2)CC(C)O1 (centres undefined),42.3 µg/mL
12,O=C(NC1CCN(Cc2ccccc2)CC1)c1ccc(Cl)cc1Cl,> 54.5 µg/mL
13,CC(C)C(OC(=O)c1cccs1)C(=O)NCc1ccccc1 (centres undefined),29.4 µg/mL
14,CC1CCCCN1Cc1c[nH]c2ccccc12 (centres undefined),28.8 µg/mL
15,CN(CCc1ccccc1)Cc1c[nH]c2ccccc12.O=C(O)C(=O)O,> 53.2 µg/mL
16,COc1ccc(S(=O)(=O)NC2CCCCC2)cc1F,> 43.1 µg/mL
17,CN(c1ccccc1)c1nc(N)c([N+](=O)[O-])c(Nc2ccccc2)n1,< 0.1 µg/mL
18,O=S(=O)(NCc1cccs1)c1ccc(Cl)s1,40.5 µg/mL
19,CN(C(=O)COC(=O)c1cccnc1Cl)C1CCCCC1,> 46.6 µg/mL
20,CN(C(=S)NC(=O)c1ccc(Cl)cc1)C1CCCCC1,6.4 µg/mL
21,CCN(CC)S(=O)(=O)c1ccc(N2CCOCC2)c(NC(=O)c2cc(Cl)c3c(c2)OCO3)c1,5.2 µg/mL
22,O=c1oc(/C=C/c2ccc([N+](=O)[O-])s2)nc2ccccc12,0.5 µg/mL
23,S=C(NCCCN1CCOCC1)Nc1cccc(Cl)c1,> 47.1 µg/mL
24,COc1ccc(NC(=O)CCS(=O)(=O)c2ccc(Cl)cc2)cc1,18.4 µg/mL

row,SMILES,solubility kinetic
1,N#Cc1cccc(CN2C=NS(=O)(=O)c3ccccc32)c1,42.2 µg/mL
2,CC(=O)Nc1ccc(SCC(=O)Nc2ccc(Cl)cn2)cc1,9.6 µg/mL
3,CC1CC2(CCCC2)N(C(=O)N(C)C)c2ccc(F)cc21 (centres undefined),10.5 µg/mL
4,CCN(CC)C(=O)CSc1nnc([C@@H](N)C(C)C)o1.Cl,> 48.4 µg/mL
5,O=S(=O)(NCc1cn2ccccc2n1)c1cccs1,> 44 µg/mL
6,CCCCNC(=S)Nc1ccc2[nH]c(=O)[nH]c2c1,18.4 µg/mL
7,COCCCNC(=O)c1cc2c(=O)n3cccc(C)c3nc2s1,6.3 µg/mL
8,N#Cc1ccc(Cn2c(-c3ccc(F)cc3)noc2=O)cc1,37.6 µg/mL
9,CSc1nc(-c2ccc(Cl)cc2)nc(N)c1C#N,< 0.1 µg/mL
10,CSCCC(NC(=O)c1ccco1)C(=O)NCCc1ccc(Cl)cc1 (centres undefined),19.6 µg/mL
11,CCOC(=O)C1=C(O)/C(=C/c2cc(C)n(-c3ccccc3)c2C)N=C1C,30.7 µg/mL
12,COC(=O)c1ccc(CNC(=O)COC(=O)/C=C/c2ccc(O)c(OC)c2)cc1,13.4 µg/mL
13,Cc1cccc(OCC(=O)Nc2ccc3oc(=O)ccc3c2)c1,3.3 µg/mL
14,CCNC(=S)NCCC1=c2ccccc2=N/C1=C\c1c(O)n(C)c(=O)n(C)c1=O,19.3 µg/mL
15,Cc1c(C)n(CCO)c2ncnc(Nc3ccc(F)cc3)c12,> 45.1 µg/mL
16,NC(=O)Nc1ccc(C(=O)OCC(=O)NC2CCCCC2)cc1,37.5 µg/mL
17,COc1ccc(CC(=O)Nc2ccc(OC)nc2)cc1,> 40.8 µg/mL
18,CCOc1ccc(CC(=O)Nc2nccs2)cc1,7.7 µg/mL
19,O=C(Nc1nc2ccccc2[nH]1)c1ccccc1O,0.2 µg/mL
20,C#CCOc1ccc(Cl)cc1/C=C1/C(=O)ON=C1C,> 41.4 µg/mL
21,CC1(C)CC(=O)C2=C(C1)Nc1ccccc1NC2c1cccc(F)c1 (centres undefined),> 50.5 µg/mL
22,CCC(=O)N(Cc1cc2ccccc2[nH]c1=O)c1ccccc1OC,32.2 µg/mL
23,CC1CCCC(C)N1C(=O)COC(=O)c1cc(F)c(F)cc1Cl (centres undefined),> 51.9 µg/mL
24,N#CCC(=O)Nc1ccc(C(=O)Nc2cccnc2)cc1,> 42 µg/mL

row,SMILES,solubility kinetic
1,COc1ccc(C(=O)NC2CC(C)(C)NC(C)(C)C2)cc1OC,> 48.1 µg/mL
2,O=c1[nH]c2ccccc2nc1-c1c[nH]c2ccccc12,0.2 µg/mL
3,COc1ccc(CC(=O)OC(C)C(=O)Nc2c(C)n(C)n(-c3ccccc3)c2=O)cc1OC (centres undefined),> 68 µg/mL
4,CC1CCN(S(=O)(=O)c2ccc(NC(=O)C3CC3)cc2)CC1,37.2 µg/mL
5,COc1cc(OC)cc(C(=O)OCC(=O)Nc2cccc(S(=O)(=O)NC3=NCCCCC3)c2)c1,33.3 µg/mL
6,COCc1c(C(=O)N2CCN(c3ccccc3C)CC2)oc2ccccc12,9.2 µg/mL
7,CCOC(=O)c1c(C)[nH]c(C(=O)COC(=O)C2CC2)c1C,7.8 µg/mL
8,CC(C)(C)C(=O)OC/C(N)=N/OC(=O)c1ccc(Cl)cc1,1.6 µg/mL
9,Nc1ccc(C(=O)O)cc1,> 20.6 µg/mL
10,C=CCNC(=O)COC(=O)c1nc2nccc(C)n2n1,> 41.3 µg/mL
11,COC(=O)c1sc(NC(=O)c2cc(C)on2)nc1C,35.5 µg/mL
12,COC(=O)C1CCN(C(=O)COC(=O)c2ccc(N3CCCC3=O)cc2)CC1,> 58.3 µg/mL
13,O=C(CN1CCc2cc3c(cc2C1)OCCCO3)Nc1ccccc1,4.4 µg/mL
14,Cc1cccc(N2CN(S(=O)(=O)c3cccc([N+](=O)[O-])c3)c3nc4ccccc4nc32)c1,0.7 µg/mL
15,CCOc1ccc(S(=O)(=O)N2CCNC(=O)C2)cc1,> 42.6 µg/mL
16,O=C(NCCNC(=O)c1ccco1)c1ccc(Cl)c(Cl)c1,44.7 µg/mL
17,CCc1c(C)nc(SCc2cccnc2)[nH]c1=O,> 39.2 µg/mL
18,COc1ccc2c(c1)C(NC(C)=O)C(=O)N2CCc1ccccc1 (centres undefined),46.6 µg/mL
19,O=C(c1ccc2c(c1)OCO2)C1CCCN(CC2CCCCC2)C1 (centres undefined),> 49.4 µg/mL
20,Cc1cc(Cl)ccc1NC(=O)Cn1cncn1,> 37.6 µg/mL
21,O=S(=O)(CCN1CCCCC1)Oc1ccc(Cl)cc1Cl,50.5 µg/mL
22,O=C(O)CN1CCCCCC1=O,> 25.7 µg/mL
23,CC1CC(C)CN(C(=O)COC(=O)c2cc3ccccc3oc2=O)C1 (centres undefined),> 51.5 µg/mL
